From US20220324835A1 (Nurix Therapeutics, Inc., priority 2018, published 2022)

Tests used:
[1] = tested on: T-cell; assay: CD25 cell surface staining on T-cells co-stimulated with anti-CD3 and anti-CD28 antibody (Biological Example 2); type: cell-based, human; conditions: Homo sapiens, T-cell, read-out: CD25 staining Anti-CD3/Anti-CD28 stimulation; for fold induction at 0.3 µM: 0.3 μM Cbl-b inhibitor; for fold induction at 1 µM: 1 μM Cbl-b inhibitor
Method in brief: (§1)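 No assay protocol given; T-cells stimulated with anti-CD3 alone or anti-CD3 plus anti-CD28, with or without Cbl-b inhibitor. Activation read as IL-2 secretion or CD25 surface staining, expressed as fold over baseline from uninhibited cells […].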

[2] = biological target: T1, Cbl-b (Homo sapiens, UniProt Q13191); assay: Cbl-b activity assay (Cbl-b inhibition assay), TR-FRET of Cbl-b interaction with UbcH5B-Ub; type: biochemical; conditions: assay buffer with 100 mM NaCl, 60 nM Src kinase; read-out: Cbl-b activity IC50
Method in brief: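 TR-FRET readout of Cbl-b binding to Bodipy-fluorescein N-terminally labeled Ub conjugated to UbcH5B C85K, measured with compound present. After compound incubation, 60 nM Src kinase with 1 mM ATP and 5 mM MgCl2 (final) was added for 1.5 h, then a further 1 h incubation; asterisked values used 50 mM NaCl buffer and 30 nM Src.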

[3] = tested on: T-cell; assay: IL-2 secretion from T-cells stimulated with anti-CD3 antibody alone (Biological Example 2); type: cell-based, human; conditions: T-cell, read-out: IL-2 secretion Anti-CD3 stimulation; for fold induction at 1 µM: 1 μM Cbl-b inhibitor
[4] = tested on: T-cell; assay: IL-2 secretion from T-cells co-stimulated with anti-CD3 and anti-CD28 antibody (Biological Example 2); type: cell-based, human; conditions: Homo sapiens, T-cell, read-out: IL-2 secretion Anti-CD3/Anti-CD28 stimulation; for fold induction at 0.3 µM: 0.3 μM Cbl-b inhibitor; for fold induction at 1 µM: 1 μM Cbl-b inhibitor
Method in brief: as §1

[5] = biological target: T1, Cbl-b; assay: Cbl-b inhibition assay (Cbl-b activity assay, FRET, Biological Example 1; 100 mM NaCl, 60 nM Src kinase); type: biochemical; conditions: upper bound stated in text lists; read-out: IC50 values in the Cbl-b inhibition assay of Biological Example 1
Method in brief: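 N-terminally biotinylated Avi-tagged Cbl-b was mixed with Src kinase, UbcH5B covalently conjugated to Bodipy-fluorescein ubiquitin, and streptavidin-terbium. Src phosphorylation lets Cbl-b bind UbcH5B-Ub, giving terbium-fluorescein FRET; inhibition is read as loss of FRET signal.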

[6] = tested on: T-cell; assay: CD25 cell surface staining on T-cells stimulated with anti-CD3 antibody alone (Biological Example 2); type: cell-based, human; conditions: T-cell, read-out: CD25 staining Anti-CD3 stimulation; for fold induction at 1 µM: 1 μM Cbl-b inhibitor
[7] = fold change over baseline, primary human total T-cells
[8] = fold change over baseline, 4 μM Cbl-b inhibitor, primary human total T-cells
[9] = fold change over baseline, 8 μM Cbl-b inhibitor, primary human total T-cells
[10] = fold change over baseline (anti-CD3/anti-CD28 stimulated T-cells without inhibitor)
[11] = Homo sapiens, fold change over baseline (anti-CD3/anti-CD28 stimulated T-cells without inhibitor)

T1 sequence (Q13191 36-427): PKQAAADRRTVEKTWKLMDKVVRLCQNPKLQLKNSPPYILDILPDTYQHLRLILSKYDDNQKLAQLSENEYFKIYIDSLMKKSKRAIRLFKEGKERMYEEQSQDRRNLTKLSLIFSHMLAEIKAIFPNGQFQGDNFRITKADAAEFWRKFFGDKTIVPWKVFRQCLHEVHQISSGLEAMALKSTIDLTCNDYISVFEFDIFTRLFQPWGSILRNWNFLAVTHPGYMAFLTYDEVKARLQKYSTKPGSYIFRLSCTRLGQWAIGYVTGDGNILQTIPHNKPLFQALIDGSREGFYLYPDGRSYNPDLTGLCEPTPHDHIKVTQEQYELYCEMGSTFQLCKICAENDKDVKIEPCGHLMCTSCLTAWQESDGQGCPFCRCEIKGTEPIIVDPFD

## Cn1cnnc1CC1(c2cccc(NC(=O)c3[nH]nc4c3OCCC4)c2)COC1 [Compound 343, N-(3-(3-((4-Methyl-4H-1,2,4-triazol-3-yl)methyl)oxetan-3-yl)phenyl)-2,5,6,7-tetrahydropyrano[3,2-c]pyrazole-3-carboxamide]
[1]; [7]
  fold induction at 0.3 µM: 1.01 to 1.3
  fold induction at 1 µM: 1.01 to 1.3
[2]
  IC50: < 100 nM
[3]; [7]
  fold induction at 1 µM: 0.051 to 0.1
[4]; [7]
  fold induction at 0.3 µM: 1.01 to 2.5
  fold induction at 1 µM: 1.01 to 2.5
[5]
  IC50: ≤ 100 nM
[6]; [7]
  fold induction at 1 µM: 0.601 to 0.8

## Cn1cnnc1CC1(c2cccc(NC(=O)c3cc(C4CC4)nc(C(F)(F)F)n3)c2)COC1 [Compound 341, 6-cyclopropyl-N-(3-(3-((4-methyl-4H-1,2,4-triazol-3-yl)methyl)oxetan-3-yl)phenyl)-2-(trifluoromethyl)pyrimidine-4-carboxamide]
[1]; [7]
  fold induction at 0.3 µM: 1.01 to 1.3
  fold induction at 1 µM: 1.31 to 1.5
[1]; [8]
  fold induction at 4 µM: 1.51 to 1.75
[2]
  IC50: < 100 nM
[3]; [7]
  fold induction at 1 µM: 0.151 to 0.2
[3]; [9]
  fold induction at 8 µM: > 0.201
[4]; [7]
  fold induction at 0.3 µM: 2.51 to 5
  fold induction at 1 µM: > 7.5
[4]; [8]
  fold induction at 4 µM: > 7.5
[5]
  IC50: ≤ 100 nM
[6]; [7]
  fold induction at 1 µM: 0.801 to 1
[6]; [9]
  fold induction at 8 µM: > 1

## Cn1cnnc1CC1(c2cccc(N3Cc4c(cc(C(O)c5ccccc5)cc4C(F)(F)F)C3=O)c2)COC1 (stereo not shown) [Example 697, 6-(hydroxy(phenyl)methyl)-2-(3-(3-((4-methyl-4H-1,2,4-triazol-3-yl)methyl)oxetan-3-yl)phenyl)-4-(trifluoromethyl)isoindolin-1-one]
[1]; [10]
  fold induction at 0.3 µM: 1.31 to 1.5
  fold induction at 1 µM: 1.31 to 1.5
[2]
  IC50: < 100 nM
[3]; [11]
  fold induction at 1 µM: > 0.201
[4]; [10]
  fold induction at 0.3 µM: 5 to 7.5
  fold induction at 1 µM: > 7.5
[5]
  IC50: ≤ 100 nM
[6]; [11]
  fold induction at 1 µM: > 1

## Cn1cnnc1CC1(c2cccc(N3Cc4c(cc(C(N5CCCC5)C(F)(F)F)cc4C(F)(F)F)C3=O)c2)COC1 (stereo not shown) [Example 581, 2-(3-(3-((4-Methyl-4H-1,2,4-triazol-3-yl)methyl)oxetan-3-yl)phenyl)-6-(2,2,2-trifluoro-1-(pyrrolidin-1-yl)ethyl)-4-(trifluoromethyl)isoindolin-1-one]
[1]; [10]
  fold induction at 0.3 µM: 1.01 to 1.3
  fold induction at 1 µM: 1.31 to 1.5
[2]
  IC50: < 100 nM
[3]; [11]
  fold induction at 1 µM: 0.051 to 0.1
[4]; [10]
  fold induction at 0.3 µM: 1.01 to 2.5
  fold induction at 1 µM: 2.51 to 5
[5]
  IC50: ≤ 100 nM
[6]; [11]
  fold induction at 1 µM: 0.801 to 1

## CCOC1CCCN(Cc2cc3c(c(C(F)(F)F)c2)CN(c2cccc(C4(Cc5nncn5C)COC4)c2)C3=O)C1 (stereo not shown) [Example 629, 6-((3-ethoxypiperidin-1-yl)methyl)-2-(3-(3-((4-methyl-4H-1,2,4-triazol-3-yl)methyl)oxetan-3-yl)phenyl)-4-(trifluoromethyl)isoindolin-1-one]
[1]; [10]
  fold induction at 0.3 µM: 1.51 to 1.75
  fold induction at 1 µM: 1.51 to 1.75
[2]
  IC50: < 100 nM
[3]; [11]
  fold induction at 1 µM: > 0.201
[4]; [10]
  fold induction at 0.3 µM: > 7.5
  fold induction at 1 µM: > 7.5
[5]
  IC50: ≤ 100 nM
[6]; [11]
  fold induction at 1 µM: > 1

## Cn1cnnc1CC1(c2cccc(N3Cc4c(cc(CN5CCC(F)(F)CC5)cc4C(F)(F)F)C3=O)c2)COC1 [Example 633, 6-((4,4-difluoropiperidin-1-yl)methyl)-2-(3-(3-((4-methyl-4H-1,2,4-triazol-3-yl)methyl)oxetan-3-yl)phenyl)-4-(trifluoromethyl)isoindolin-1-one]
[1]; [10]
  fold induction at 0.3 µM: 1.31 to 1.5
  fold induction at 1 µM: 1.31 to 1.5
[2]
  IC50: < 100 nM
[3]; [11]
  fold induction at 1 µM: > 0.201
[4]; [10]
  fold induction at 0.3 µM: > 7.5
  fold induction at 1 µM: > 7.5
[5]
  IC50: ≤ 100 nM
[6]; [11]
  fold induction at 1 µM: > 1

## Cn1cnnc1CC1(c2cccc(N3Cc4c(cc(CN5Cc6ccc(F)cc6C5)cc4C(F)(F)F)C3=O)c2)COC1 [Example 655, 6-((5-fluoroisoindolin-2-yl)methyl)-2-(3-(3-((4-methyl-4H-1,2,4-triazol-3-yl)methyl)oxetan-3-yl)phenyl)-4-(trifluoromethyl)isoindolin-1-one]
[1]; [10]
  fold induction at 0.3 µM: 1.31 to 1.5
  fold induction at 1 µM: 1.31 to 1.5
[2]
  IC50: < 100 nM
[3]; [11]
  fold induction at 1 µM: > 0.201
[4]; [10]
  fold induction at 0.3 µM: 5 to 7.5
  fold induction at 1 µM: > 7.5
[5]
  IC50: ≤ 100 nM
[6]; [11]
  fold induction at 1 µM: > 1

## Cn1cnnc1CC1(c2cccc(N3Cc4c(cc(CN5CCC6(CC6)C(F)(F)C5)cc4C(F)(F)F)C3=O)c2)COC1 [Example 636, 6-((4,4-difluoro-6-azaspiro[2.5]octan-6-yl)methyl)-2-(3-(3-((4-methyl-4H-1,2,4-triazol-3-yl)methyl)oxetan-3-yl)phenyl)-4-(trifluoromethyl)isoindolin-1-one]
[1]; [10]
  fold induction at 0.3 µM: 1.31 to 1.5
  fold induction at 1 µM: 1.31 to 1.5
[2]
  IC50: < 100 nM
[3]; [11]
  fold induction at 1 µM: > 0.201
[4]; [10]
  fold induction at 0.3 µM: 2.51 to 5
  fold induction at 1 µM: > 7.5
[5]
  IC50: ≤ 100 nM
[6]; [11]
  fold induction at 1 µM: > 1

## CC1CCN(Cc2cc3c(c(C(F)(F)F)c2)CN(c2cccc(C4(Cc5nncn5C)COC4)c2)C3=O)CC1(F)F (stereo not shown) [Example 635, 6-((3,3-difluoro-4-methylpiperidin-1-yl)methyl)-2-(3-(3-((4-methyl-4H-1,2,4-triazol-3-yl)methyl)oxetan-3-yl)phenyl)-4-(trifluoromethyl)isoindolin-1-one]
[1]; [10]
  fold induction at 0.3 µM: 1.31 to 1.5
  fold induction at 1 µM: 1.31 to 1.5
[2]
  IC50: < 100 nM
[3]; [11]
  fold induction at 1 µM: > 0.201
[4]; [10]
  fold induction at 0.3 µM: > 7.5
  fold induction at 1 µM: > 7.5
[5]
  IC50: ≤ 100 nM
[6]; [11]
  fold induction at 1 µM: > 1

## Cn1cnnc1CC1(c2cccc(N3Cc4c(cc(CN5Cc6ccccc6C5)cc4C(F)(F)F)C3=O)c2)COC1 [Example 654, 6-(isoindolin-2-ylmethyl)-2-(3-(3-((4-methyl-4H-1,2,4-triazol-3-yl)methyl)oxetan-3-yl)phenyl)-4-(trifluoromethyl)isoindolin-1-one]
[1]; [10]
  fold induction at 0.3 µM: 1.31 to 1.5
  fold induction at 1 µM: 1.31 to 1.5
[2]
  IC50: < 100 nM
[3]; [11]
  fold induction at 1 µM: > 0.201
[4]; [10]
  fold induction at 0.3 µM: 5 to 7.5
  fold induction at 1 µM: > 7.5
[5]
  IC50: ≤ 100 nM
[6]; [11]
  fold induction at 1 µM: > 1

## CN1C[C@H]2CC[C@@H](C1)N2c1cc(C(=O)Nc2cccc(C3(Cc4nncn4C)COC3)c2)nc(C2CC2)n1 [Example 573, 2-Cyclopropyl-N-(3-(3-((4-methyl-4H-1,2,4-triazol-3-yl)methyl)oxetan-3-yl)phenyl)-6-((1R,5S)-3-methyl-3,8-diazabicyclo[3.2.1]octan-8-yl)pyrimidine-4-carboxamide]
[1]; [10]
  fold induction at 0.3 µM: 1.31 to 1.5
  fold induction at 1 µM: 1.51 to 1.75
[2]
  IC50: < 100 nM
[3]; [11]
  fold induction at 1 µM: > 0.201
[4]; [10]
  fold induction at 0.3 µM: 5 to 7.5
  fold induction at 1 µM: > 7.5
[5]
  IC50: ≤ 100 nM
[6]; [11]
  fold induction at 1 µM: > 1

## Cn1cnnc1CC1(c2cccc(N3Cc4c(cc(CN5CCC6(CC5)CC6)cc4C(F)(F)F)C3=O)c2)COC1 [Example 641, 6-((6-azaspiro[2.5]octan-6-yl)methyl)-2-(3-(3-((4-methyl-4H-1,2,4-triazol-3-yl)methyl)oxetan-3-yl)phenyl)-4-(trifluoromethyl)isoindolin-1-one]
[1]; [10]
  fold induction at 0.3 µM: 1.51 to 1.75
  fold induction at 1 µM: 1.51 to 1.75
[2]
  IC50: < 100 nM
[3]; [11]
  fold induction at 1 µM: > 0.201
[4]; [10]
  fold induction at 0.3 µM: > 7.5
  fold induction at 1 µM: > 7.5
[5]
  IC50: ≤ 100 nM
[6]; [11]
  fold induction at 1 µM: > 1
